Laboratory results: patent publication US20090111801A1, “SUBSTITUTED PYRAZINONE DERIVATIVES FOR USE AS A MEDICINE” (Janssen Pharmaceutica N.V., priority 2006, published 2009)

Columns and labels:
[1] = target: T1, hα2A receptor (Homo sapiens, UniProt P08913); test: Radioligand binding experiment for α2A-adrenoceptor ([3H]raulwolscine, CHO cell membranes); conditions: [3H]raulwolscine binding; for IC50: read-out: h-α2A pIC50 (converted)
T1 construct: expressed in transfected cells; host or cells: CHO cells, stably transfected; membrane preparation
T1 sequence (P08913 1-465): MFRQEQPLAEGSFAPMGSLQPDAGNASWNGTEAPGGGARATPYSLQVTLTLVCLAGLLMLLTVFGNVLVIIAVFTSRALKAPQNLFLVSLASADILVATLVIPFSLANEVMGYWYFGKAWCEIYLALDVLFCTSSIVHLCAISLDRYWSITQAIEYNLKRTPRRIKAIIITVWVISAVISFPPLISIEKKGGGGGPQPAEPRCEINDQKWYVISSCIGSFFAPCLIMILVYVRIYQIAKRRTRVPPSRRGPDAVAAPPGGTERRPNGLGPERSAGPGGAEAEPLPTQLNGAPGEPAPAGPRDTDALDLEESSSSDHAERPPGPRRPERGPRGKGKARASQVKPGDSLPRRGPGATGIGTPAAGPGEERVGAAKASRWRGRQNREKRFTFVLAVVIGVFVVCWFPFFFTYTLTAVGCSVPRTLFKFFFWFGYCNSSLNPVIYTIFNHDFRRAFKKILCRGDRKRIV

[2] = target: T2, hα2C receptor (Homo sapiens, UniProt P18825); test: Radioligand binding experiment for α2C-adrenoceptor ([3H]raulwolscine, CHO cell membranes); conditions: [3H]raulwolscine binding; for IC50: read-out: h-α2C pIC50 (converted)
T2 construct: expressed in transfected cells; host or cells: CHO cells, stably transfected; membrane preparation
T2 sequence (P18825 1-462): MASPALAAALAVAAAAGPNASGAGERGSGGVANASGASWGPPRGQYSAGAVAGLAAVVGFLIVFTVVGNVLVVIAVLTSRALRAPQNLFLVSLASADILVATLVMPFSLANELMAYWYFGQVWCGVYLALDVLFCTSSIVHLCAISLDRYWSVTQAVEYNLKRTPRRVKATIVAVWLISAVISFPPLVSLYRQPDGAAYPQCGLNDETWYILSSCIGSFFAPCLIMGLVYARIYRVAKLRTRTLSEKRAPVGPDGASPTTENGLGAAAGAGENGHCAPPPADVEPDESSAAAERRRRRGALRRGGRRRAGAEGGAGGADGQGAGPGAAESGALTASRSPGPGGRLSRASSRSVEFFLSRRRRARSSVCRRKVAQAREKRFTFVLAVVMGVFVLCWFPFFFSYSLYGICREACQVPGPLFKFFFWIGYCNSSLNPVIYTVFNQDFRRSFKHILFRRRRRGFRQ

[3] = target: T3, 5HT-Transporter (Homo sapiens, UniProt P31645); test: Binding experiment for the 5HT-transporter ([3H]paroxetine, human platelet membranes); conditions: [3H]paroxetine 0.5 nM; for IC50: read-out: h-5HTT pIC50 (converted)
T3 construct: Human platelet membranes (Oceanix Biosciences Corporation, Hanover, Md., USA) were thawed; tissue Oceanix Biosciences Corporation, Hanover, Md., USA; host or cells: human platelet membranes
T3 sequence (P31645 whole entry): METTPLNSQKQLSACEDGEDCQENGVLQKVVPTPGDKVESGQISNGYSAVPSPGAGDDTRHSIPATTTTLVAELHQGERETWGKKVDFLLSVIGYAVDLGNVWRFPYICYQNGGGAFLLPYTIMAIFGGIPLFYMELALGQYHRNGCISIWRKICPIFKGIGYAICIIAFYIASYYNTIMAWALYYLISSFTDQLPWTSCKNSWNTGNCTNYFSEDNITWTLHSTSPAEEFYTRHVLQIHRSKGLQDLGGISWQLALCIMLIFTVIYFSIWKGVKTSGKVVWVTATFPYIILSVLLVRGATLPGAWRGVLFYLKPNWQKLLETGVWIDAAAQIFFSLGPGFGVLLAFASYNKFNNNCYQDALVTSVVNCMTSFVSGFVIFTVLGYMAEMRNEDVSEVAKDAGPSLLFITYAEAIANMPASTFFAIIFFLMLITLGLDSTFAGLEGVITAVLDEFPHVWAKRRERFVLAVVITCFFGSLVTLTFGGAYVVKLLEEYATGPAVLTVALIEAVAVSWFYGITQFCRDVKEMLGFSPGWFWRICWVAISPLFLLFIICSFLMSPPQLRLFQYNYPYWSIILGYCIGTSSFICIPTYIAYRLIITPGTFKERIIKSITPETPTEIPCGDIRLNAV
Method in brief: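 Filter-bound radioactivity from human platelet membranes incubated with [3H]paroxetine and test compound (buffer Tris-HCl 50 mM, 120 mM NaCl, 5 mM KCl) was counted.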

Structure (SMILES)	IC50 [1] [nM]	IC50 [2] [nM]	IC50 [3] [nM]	h-α2A pIC50 [1]	h-α2C pIC50 [2]	h-5HTT pIC50 [3]
C/C(=C\c1ccccc1)CN1CCC(Nc2nccn(Cc3ccccc3-c3ccccc3)c2=O)CC1 [5-31]	100	20	200			
C/C(=C\c1ccccc1)CN1CCC(Nc2nccn(Cc3ccc(CNC(=O)NC4CCCCC4)cc3)c2=O)CC1 [1-118]	398	79.4	501			
C/C(=C\c1ccccc1)CN1CCC(Nc2nccn(CCCN(C)C(=O)c3ccccc3)c2=O)CC1 [1-74]	251	10	3160			
C/C(=C\c1ccccc1)CN1CCC(Nc2nccn(Cc3ccc(C)cc3)c2=O)CC1 [5-9]	158	50.1	1000			
C/C(=C\c1ccccc1)CN1CCC(Nc2nccn(CCCN3C(=O)c4ccccc4C3=O)c2=O)CC1 [2-50]	31.6	1	126			
C/C(=C\c1ccccc1)CN1CCC(Nc2nccn(-c3ccc(NCCc4ccccc4)cc3)c2=O)CC1 [1-59]	79.4	10	1260			
C/C(=C\c1ccccc1)CN1CCC(Nc2nccn(Cc3ccc(CNC(=O)c4ccccc4)cc3)c2=O)CC1 [1-73]	158	31.6	316			
C/C(=C\c1ccccc1)CN1CCC(Nc2nccn(CC(=O)N(CCCN3CCCC3=O)Cc3ccc(F)cc3)c2=O)CC1 [1-139]	200	3.16	2510			
CC(=O)CN(C)CCCn1ccnc(NC2CCN(C/C(C)=C/c3ccccc3)CC2)c1=O [1-38]	316	12.6	7940			
CC(=O)c1ccc(-n2ccnc(NC3CCN(C/C(C)=C/c4ccccc4)CC3)c2=O)cc1 [5-7]	25.1	10	631			
C=CCN1CCN(C(=O)c2ccc(-n3ccnc(NC4CCN(C/C(C)=C/c5ccccc5)CC4)c3=O)cc2)CC1 [2-25]	126	7.94	501			
C/C(=C\c1ccccc1)CN1CCC(Nc2nccn(CC(=O)N3CCN(c4ccccc4)CC3)c2=O)CC1 [2-26]	126	7.94	794			
CCOC(=O)N1CCN(Cc2cccc(-n3ccnc(NC4CCN(C/C(C)=C/c5ccccc5)CC4)c3=O)c2)CC1 [2-36]	100	10	1580			
C/C(=C\c1ccccc1)CN1CCC(Nc2nccn(CCCOc3ccccc3)c2=O)CC1 [3-19]	63.1	20	200			
C/C(=C\c1ccccc1)CN1CCC(Nc2nccn(Cc3ccc(C#N)cc3)c2=O)CC1 [5-20]	501	100	5010			
C/C(=C\c1ccccc1)CN1CCC(Nc2nccn(CC(=O)N3CCN(c4ccc(C)c(C)c4)CC3)c2=O)CC1 [2-29]	158	31.6	100			

Structure (SMILES)	IC50 [1] [nM]	IC50 [2] [nM]	IC50 [3] [nM]	h-α2A pIC50 [1]	h-α2C pIC50 [2]	h-5HTT pIC50 [3]
C/C(=C\c1ccccc1)CN1CCC(Nc2nccn(CC(=O)N(CCCn3ccnc3)Cc3ccc(F)cc3)c2=O)CC1 [1-143]	79.4	3.16	2000			
COC(=O)CN(C)C(=O)Cn1ccnc(NC2CCN(C/C(C)=C/c3ccccc3)CC2)c1=O [1-97]	126	10	2510			
C/C(=C\c1ccccc1)CN1CCC(Nc2nccn(-c3ccc(CN4CCOCC4)cc3)c2=O)CC1 [2-44]	50.1	6.31	2000			
C/C(=C\c1ccccc1)CN1CCC(N(C)c2nccn(Cc3ccc(CN(C)C)cc3)c2=O)CC1 [15-2]	31.6	3.16	1000			
C/C(=C\c1ccccc1)CN1CCC(Nc2nccn(CCCNS(C)(=O)=O)c2=O)CC1 [1-155]	200	20	1260			
CCCCS(=O)(=O)NCc1ccc(Cn2ccnc(NC3CCN(C/C(C)=C/c4ccccc4)CC3)c2=O)cc1 [1-157]	251	50.1	1000			
C/C(=C\c1ccccc1)CN1CCC(Nc2nccn(-c3ccc(CO)cc3)c2=O)CC1 [3-3]				6.8	7.8	5.2
C/C(=C\c1ccccc1)CN1CCC(Nc2nccn(-c3cccc(CNCCN4CCCC4)c3)c2=O)CC1 [1-130]				8.2	8.8	6.7
C/C(=C\c1ccccc1)CN1CCC(Nc2nccn(CC(=O)NCc3ccco3)c2=O)CC1 [1-147]	50.1	3.16	3160			
C/C(=C\c1ccccc1)CN1CCC(Nc2nccn(CC(=O)Nc3ccccc3)c2=O)CC1 [1-40]	50.1	3.16	1000			
C/C(=C\c1ccccc1)CN1CCC(Nc2nccn(-c3ccc(NC(=O)CC4CCCC4)cc3)c2=O)CC1 [1-35]	251	50.1	1260			
CCCNCc1cccc(-n2ccnc(NC3CCN(C/C(C)=C/c4ccccc4)CC3)c2=O)c1 [1-12]				8.4	9.0	6.1
C/C(=C\c1ccccc1)CN1CCC(Nc2nccn(CCCN(C)S(=O)(=O)c3ccccc3)c2=O)CC1 [1-160]	158	12.6	501			
C/C(=C\c1ccccc1)CN1CCC(Nc2nccn(CCCN(C)Cc3ccccc3)c2=O)CC1 [1-51]	50.1	1	1000			
CSCCn1ccnc(N2CCN(C/C(C)=C/c3ccccc3)CC2)c1=O [11-1]	316	79.4	6310			
C/C(=C\c1ccccc1)CN1CCC(Nc2nccn(CC(=O)NCCN(C)C)c2=O)CC1 [1-102]	31.6	2	3160			

Now from value to compound:

IC50 [1] [nM]	IC50 [2] [nM]	IC50 [3] [nM]	h-α2A pIC50 [1]	h-α2C pIC50 [2]	h-5HTT pIC50 [3]	Structure (SMILES)
79.4	15.8	316				C/C(=C\c1ccccc1)CN1CCC(Nc2nccn(Cc3ccc4ccccc4n3)c2=O)CC1 [6-17]
1580	316	5010				O=c1c(NC2CCN(C/C=C/c3ccccc3)CC2)nccn1CC1CCCCO1 (stereo not drawn) [16-19]
63.1	15.8	316				C/C(=C\c1ccccc1)CN1CCC(Nc2nccn(-c3cnc4ccccc4c3)c2=O)CC1 [6-16]
794	63.1	> 10000				O=c1c(NC2CCN(C/C=C/c3ccccc3)CC2)nccn1CCN1CCCCC1 [16-6]
1000	158	> 10000				CC(C)(C)C(=O)Cn1ccnc(NC2CCN(C/C=C/c3ccccc3)CC2)c1=O [16-25]
794	200	794				O=c1c(NC2CCN(C/C=C/c3ccccc3)CC2)nccn1CCc1ccccc1 [16-14]
794	398	1260				CC(C)(C)OC(=O)NCc1ccc(Cn2ccnc(NC3CCN(C/C=C/c4ccccc4)CC3)c2=O)cc1 [16-5]
158	39.8	2510				C/C(=C\c1ccccc1)CN1CCC(Nc2nccn(Cc3ccncc3)c2=O)CC1 [6-14]
501	200	1000				O=c1c(NC2CCN(C/C=C/c3ccccc3)CC2)nccn1Cc1cccc(Br)c1 [16-16]
126	50.1	6310				CCCn1ccnc(N2CCN(C/C(C)=C/c3ccccc3)CC2)c1=O [14-2]
